Experimental data as given in the supplement of paper PMC10331698.
± gives the standard deviation of the averaged measurements.

How the values were obtained:
Assay in all cases: level (log10 ratio to DMSO vehicle control); higher = higher biomarker level / cell amount than vehicle control
[1] = compound: C=C(C)C(=O)OCC(F)(F)C(F)(F)C(F)(F)F [2,2,3,3,4,4,4-Heptafluorobutyl methacrylate]; settings: in DMSO
Method: (§1)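 BioMAP Diversity Plus panel of 12 human primary cell co-culture systems (3C, 4H, LPS, SAg, BT, BF4T, BE3C, CASM3C, HDF3CGF, KF3CT, MyoF, Mphg). Compounds were added 1 h before stimulation and left for 24 h (MyoF 48 h; BT 72 h for soluble read-outs or 6 d for IgG). Biomarkers were read by ELISA, cytotoxicity by SRB, PBMC viability and proliferation by Alamar Blue. Each well value was divided by the mean of 8 DMSO control wells on the same plate and log10 transformed; duplicate blinded samples were tested at 4 concentrations.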

[2] = compound: O=C(O)C(F)(F)C(F)(F)C(F)(F)C(F)(F)C(F)(F)C(F)(F)C(F)(F)F [Ammonium perfluorooctanoate]; settings: in DMSO
Method: as §1

[3] = compound: OCCCC(F)(F)C(F)(F)C(F)(F)C(F)(F)C(F)(F)C(F)(F)C(F)(F)C(F)(F)F [3-(Perfluorooctyl)propanol]; settings: 6700 nM; in DMSO
Method: as §1

| Test System | level (log10) ([1]; 6700 nM) | level (log10) ([1]; 20000 nM) | level (log10) ([1]; 60000 nM) | level (log10) ([2]; 6700 nM) | level (log10) ([2]; 20000 nM) | level (log10) ([2]; 60000 nM) | level (log10) [3] |
| --- | --- | --- | --- | --- | --- | --- | --- |
| lMphg:SRB-Mphg | 0.003 | -0.0115 ± 0.016 | 0.0155 ± 0.016 | -0.0045 ± 0.0092 | 0.006 ± 0.0057 | -0.007 ± 0.02 | -0.049 ± 0.072 |
| lMphg:sIL-10 | -0.0245 ± 0.028 | -0.0155 ± 0.005 | -0.0165 ± 0.0035 | -0.0655 ± 0.049 | -0.042 ± 0.021 | -0.16 ± 0.028 | -0.027 ± 0.013 |
